# Source: patent US20100173888A1 (Pfizer Inc, priority 2008, published 2010)
# Target: human recombinant H-PGDS (Homo sapiens, UniProt O60760)
# Assay: Slightly modified fluorescence intensity h-PGDS TBA enzyme assay (1:40,000 enzyme, 40 second reaction, 1/2 log dilutions, top concentration typically 10 μM)
# Type: biochemical
# Conditions: slightly modified assay: 1:40,000 human recombinant H-PGDS
# Method: Fluoresecence Intensity h-PGDSTBA Enzyme Assay
# Prostaglandin D Synthase (PGDS) converts the substrate prostaglandin H2 (PGH2) to prostaglandin D2. The depletion of PGH2 was measured via an Fe(II) reduction of the remaining PGH2 to malondialdehyde (MDA) and 12-HHT. The enzyme assay is based on the quantitative formation of a fluorescent complex from the non-fluorescent compounds MDA and 2-thiobarbituric acid (TBA), substantially as described in U.S. patent application publication US-2004/152148 by Lombardt.
# Examples 6-8, 11a-16, 23, 26-47, 49-103, 105-113, 115-118 and 126-128 were tested in a slightly modified assay: The enzyme assay (30 μls during biological process) contained 100 mM Trizma pH 8.0, 100 μM MgCl2, 0.1 mg/ml IgG Rabbit serum, 5.0 μM PGH2 (Cayman; ethanol solution, #17020), 2.5 mM L-Glutathione (Sigma; reduced form #G4251), 1:40,000 human recombinant H-PGDS (from 1 mg/ml), 0.5% DMSO and inhibitor (varying concentration). 3 μls of diluted inhibitor (dissolved in DMSO) was plated into a 384-well assay plate followed by a 24 μl addition of an enzyme solution containing h-PGDS, Trizma, MgCl2, IgG and L-Glutathione. After pre-incubation of inhibitor and enzyme solution for 10 minutes at room temperature, the reaction was initiated with a 3 μl addition of substrate solution in 10 mM HCl. The reaction was terminated after 40 second by the addition of 3 μl stop buffer containing FeCl2 and citric acid. After addition of 45 μls of TBA plates were heated for one hour in a 70° C. oven. Plates were cooled at room temperature overnight and read on a plate reader the next day with excitation @ 530 nm and emission @ 560 nm. IC50' s of inhibitors were calculated with a 4-parameter fit using 11 inhibitor concentrations in duplicate with ½ log serial dilutions. Controls on each plate included no inhibitor (zero % effect) and an inhibitor 500-fold in excess of its' IC50 (100% effect). The highest inhibitor concentration tested was typically 10 μM.
# Chain of human recombinant H-PGDS (O60760 whole entry): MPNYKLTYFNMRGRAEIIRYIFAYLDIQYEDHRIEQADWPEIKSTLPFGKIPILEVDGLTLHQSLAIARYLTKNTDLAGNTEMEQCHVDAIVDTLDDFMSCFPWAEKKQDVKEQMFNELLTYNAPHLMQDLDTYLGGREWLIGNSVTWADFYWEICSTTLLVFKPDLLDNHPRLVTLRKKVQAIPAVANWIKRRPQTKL
row,SMILES,IC50 [nM]
1,"CN(C)CCCNC(=O)[C@@H]1CCC[C@H](NC(=O)c2ccc(-c3cccc(F)c3)nc2)C1 (relative stereo) [Example 64F, N-[cis-3-{[3-(dimethylamino)propyl]carbamoyl}cyclohexyl]-6-(3-fluorophenyl)nicotinamide]",16.8
2,"O=C(N[C@H]1CCC[C@@H](C(=O)NCCN2CCCCC2)C1)c1ccc(-c2cccc(F)c2)nc1 (relative stereo) [Example 64I, 6-(3-fluorophenyl)-N-{cis-3-[(2-piperidin-1-ylethyl)carbamoyl]cyclohexyl}nicotinamide]",11.1
3,"CCN1CCC(CNC(=O)[C@@H]2CCC[C@H](NC(=O)c3ccc(-c4cccc(F)c4)nc3)C2)C1 (relative stereo) [Example 64J, N-[cis-3-{[(1-ethylpyrrolidin-3-yl)methyl]carbamoyl}cyclohexyl]-6-(3-fluorophenyl)nicotinamide]",19.6
4,"CCN1CCC(NC(=O)[C@@H]2CCC[C@H](NC(=O)c3ccc(-c4cccc(F)c4)nc3)C2)CC1 (relative stereo) [Example 64M, N-{cis-3-[(1-ethylpiperidin-4-yl)carbamoyl]cyclohexyl}-6-(3-fluorophenyl)nicotinamide]",509
5,"O=C(NC1CCC(N2CCOCC2)CC1)c1ccc(-c2cccc(F)c2)nc1 (single isomer, unassigned) [Example 49, 6-(3-Fluorophenyl)-N-(4-morpholin-4-ylcyclohexyl)nicotinamide]",69.2
6,"O=C(NC1CCC(N2CCOCC2)CC1)c1ccc(-c2cccc(F)c2)nc1 (single isomer, unassigned) [Example 50, 6-(3-Fluorophenyl)-N-(4-morpholin-4-ylcyclohexyl)nicotinamide]",5.76
7,"CN1CCN(C2CCC(NC(=O)c3ccc(-c4cccc(F)c4)nc3)CC2)CC1 (single isomer, unassigned) [Example 51, 6-(3-Fluorophenyl)-N-[-4-(4-methylpiperazin-1-yl)cyclohexyl]nicotinamide]",172
8,"CN1CCN(C2CCC(NC(=O)c3ccc(-c4cccc(F)c4)nc3)CC2)CC1 (single isomer, unassigned) [Example 52, 6-(3-Fluorophenyl)-N-[-4-(4-methylpiperazin-1-yl)cyclohexyl]nicotinamide]",39.1
9,"COCCNC1CCC(NC(=O)c2ccc(-c3cccc(F)c3)nc2)CC1 (single isomer, unassigned) [Example 54, 6-(3-Fluorophenyl)-N-{4-[(2-methoxyethyl)amino]cyclohexyl}nicotinamide]",87.2
10,"COCCNC1CCC(NC(=O)c2ccc(-c3cccc(F)c3)nc2)CC1 (single isomer, unassigned) [Example 55, 6-(3-Fluorophenyl)-N-{4-[(2-methoxyethyl)amino]cyclohexyl}nicotinamide]",18.5
11,"O=C(NC1CCC(NC2CCOC2)CC1)c1ccc(-c2cccc(F)c2)nc1 (single isomer, unassigned) [Example 56, 6-(3-Fluorophenyl)-N-[-4-(tetrahydrofuran-3-ylamino)cyclohexyl]nicotinamide]",30.6
12,"O=C(NC1CCC(NC2CCOC2)CC1)c1ccc(-c2cccc(F)c2)nc1 (single isomer, unassigned) [Example 57, 6-(3-Fluorophenyl)-N-[-4-(tetrahydrofuran-3-ylamino)cyclohexyl]nicotinamide]",32
13,"COCCN(C)C1CCC(NC(=O)c2ccc(-c3cccc(F)c3)nc2)CC1 (single isomer, unassigned) [Example 58, 6-(3-Fluorophenyl)-N-{4-[(2-methoxyethyl)(methyl)amino]cyclohexyl}nicotinamide]",307
14,"COCCN(C)C1CCC(NC(=O)c2ccc(-c3cccc(F)c3)nc2)CC1 (single isomer, unassigned) [Example 59, 6-(3-Fluorophenyl)-N-{4-[(2-methoxyethyl)(methyl)amino]cyclohexyl}nicotinamide]",30.5
15,"O=C(NC1CCC(N2CC[C@@H](O)C2)CC1)c1ccc(-c2cccc(F)c2)nc1 (single isomer, unassigned) [Example 60]",111
16,"O=C(NC1CCC(N2CC[C@@H](O)C2)CC1)c1ccc(-c2cccc(F)c2)nc1 (single isomer, unassigned) [Example 61]",45
17,"O=C(NC1CCC(c2ncc[nH]2)CC1)c1ccc(-c2cccc(F)c2)nc1 (single isomer, unassigned) [Example 63, 6-(3-Fluorophenyl)-N-[4-(1H-imidazol-2-yl)cyclohexyl]nicotinamide]",13
18,"O=C(NC1CCC(c2ncc[nH]2)CC1)c1ccc(-c2cccc(F)c2)nc1 (single isomer, unassigned) [Example 64, 6-(3-Fluorophenyl)-N-[4-(1H-imidazol-2-yl)cyclohexyl]nicotinamide]",6.2
19,"O=C(NC1CC1)c1ccc(-c2cccc(F)c2)nc1 [Example 6, N-Cyclopropyl-6-(3-fluoro-phenyl)-nicotinamide]",159
20,CN(C)C[C@H]1C[C@@H](NC(=O)c2ccc(-c3cccc(F)c3)nc2)C1 [Example 7],292
21,O=C(N[C@H]1CCC[C@H]1C(=O)O)c1ccc(-c2cccc(F)c2)nc1 [Example 8],1720
22,"O=C(N[C@@H]1CC[C@H](C(=O)O)C1)c1ccc(-c2cccc(F)c2)nc1 [Example 11a, (1S,3R)-3-({[6-(3-Fluorophenyl)pyridin-3-yl]carbonyl}amino)cyclopentanecarboxylic acid]",125
23,"O=C(N[C@H]1CC[C@@H](C(=O)O)C1)c1ccc(-c2cccc(F)c2)nc1 [Example 11b, (1R,3S)-3-({[6-(3-Fluorophenyl)pyridin-3-yl]carbonyl}amino)cyclopentanecarboxylic acid]",13.7
24,"CN1CCN(C(=O)[C@H]2CC[C@@H](NC(=O)c3ccc(-c4cccc(F)c4)nc3)C2)CC1 [Example 12, 6-(3-Fluorophenyl)-N-{(1R,3S)-3-[(4-methylpiperazin-1-yl)carbonyl]cyclopentyl}nicotinamide]",11.2
25,"O=C(N[C@@H]1CC[C@H](C(=O)N2CCNCC2)C1)c1ccc(-c2cccc(F)c2)nc1 [Example 13, 6-(3-Fluorophenyl)-N-[(1R,3S)-3-(piperazin-1-ylcarbonyl)cyclopentyl]nicotinamide]",16.5
26,"O=C(N[C@@H]1CC[C@H](C(=O)N2CCC(O)CC2)C1)c1ccc(-c2cccc(F)c2)nc1 [Example 14, 6-(3-Fluorophenyl)-N-{(1R,3S)-3-[(4-hydroxypiperidin-1-yl)carbonyl]cyclopentyl}nicotinamide]",7.48
27,"O=C(N[C@@H]1CC[C@H](C(=O)N2CC[C@H](O)C2)C1)c1ccc(-c2cccc(F)c2)nc1 [Example 15, 6-(3-Fluorophenyl)-N-[(1R,3S)-3-{[(3S)-3-hydroxypyrrolidin-1-yl]carbonyl}cyclopentyl]nicotinamide]",10.3
28,"N[C@H]1CCN(C(=O)[C@H]2CC[C@@H](NC(=O)c3ccc(-c4cccc(F)c4)nc3)C2)C1 [Example 16, N-[(1R,3S)-3-{[(3S)-3-Aminopyrrolidin-1-yl]carbonyl}cyclopentyl]-6-(3-fluorophenyl)nicotinamide]",29.1
29,"NC1CCC(NC(=O)c2ccc(-c3cccc(F)c3)nc2)CC1 (centres unmarked) [Example 44, N-(4-Aminocyclohexyl)-6-(3-fluorophenyl)nicotinamide]",67.5
